Assay results taken from the supplement of paper PMC10307832.

Assays:
Experiment in all cases: relative viability (nuclei count vs DMSO), 5 days (fraction); higher = more cells survive
Zebularine + Foretinib = compound: O=c1ncccn1[C@@H]1O[C@H](CO)[C@@H](O)[C@H]1O [Zebularine] + COc1cc2c(Oc3ccc(NC(=O)C4(C(=O)Nc5ccc(F)cc5)CC4)cc3F)ccnc2cc1OCCCN1CCOCC1 [Foretinib] (partner 0.25 µM)
Summary of the method: (§1)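 Five library-drug doses in √10 steps were combined with a fixed anchor-drug dose, or a single drug was given alone, by pin tool to lung cancer cell lines in 1536-well plates the day after seeding. Nuclei were stained and counted after 5 days. Relative viability is the nuclei count in treated wells over that in vehicle wells, taken as the median of duplicate plates.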

BI-D1870 + Dasatinib = compound: CC(C)CCN1c2nc(Nc3cc(F)c(O)c(F)c3)ncc2N(C)C(=O)C1C [BI-D1870] + Cc1nc(Nc2ncc(C(=O)Nc3c(C)cccc3Cl)s2)cc(N2CCN(CCO)CC2)n1 [Dasatinib] (partner 0.075 µM)
Summary of the method: as §1

BI-D1870 + Bortezomib = compound: CC(C)CCN1c2nc(Nc3cc(F)c(O)c(F)c3)ncc2N(C)C(=O)C1C [BI-D1870] + CC(C)C[C@H](NC(=O)[C@H](Cc1ccccc1)NC(=O)c1cnccn1)B(O)O [Bortezomib] (partner 0.002 µM)
Summary of the method: as §1

Zebularine + Trametinib = compound: O=c1ncccn1[C@@H]1O[C@H](CO)[C@@H](O)[C@H]1O [Zebularine] + CC(=O)Nc1cccc(-n2c(=O)n(C3CC3)c(=O)c3c(Nc4ccc(I)cc4F)n(C)c(=O)c(C)c32)c1 [Trametinib] (partner 0.02 µM)
Summary of the method: as §1

Cell Line	relative viability (Zebularine + Foretinib; first compound 1 µM)	relative viability (Zebularine + Foretinib; first compound 3.162 µM)	relative viability (Zebularine + Foretinib; first compound 10 µM)	relative viability (Zebularine + Foretinib; first compound 31.62 µM)	relative viability (Zebularine + Foretinib; first compound 100 µM)	relative viability (BI-D1870 + Dasatinib; first compound 0.04 µM)	relative viability (BI-D1870 + Dasatinib; first compound 0.1265 µM)	relative viability (BI-D1870 + Dasatinib; first compound 0.4 µM)	relative viability (BI-D1870 + Dasatinib; first compound 1.265 µM)	relative viability (BI-D1870 + Dasatinib; first compound 4 µM)	relative viability (BI-D1870 + Bortezomib; first compound 0.04 µM)	relative viability (BI-D1870 + Bortezomib; first compound 0.1265 µM)	relative viability (BI-D1870 + Bortezomib; first compound 0.4 µM)	relative viability (BI-D1870 + Bortezomib; first compound 1.265 µM)	relative viability (BI-D1870 + Bortezomib; first compound 4 µM)	relative viability (Zebularine + Trametinib; first compound 1 µM)	relative viability (Zebularine + Trametinib; first compound 3.162 µM)	relative viability (Zebularine + Trametinib; first compound 10 µM)	relative viability (Zebularine + Trametinib; first compound 31.62 µM)	relative viability (Zebularine + Trametinib; first compound 100 µM)
NCI-H1975	0.961	0.889	0.362	0.292	0.2	0.497	0.314	0.359	0.399	0.295	0.487	0.44	0.386	0.339	0.175	0.298	0.268	0.338	0.283	0.222
CAL-12T	1.2	1.09	0.931	1.15	0.671	0.489	0.272	0.411	0.512	0.176	1.15	0.907	0.932	0.895	0.635	0.381	0.338	0.309	0.328	0.319
NCI-H1623	1	0.733	0.723	0.791	0.484	0.558	0.581	0.527	0.473	0.452										
HCC-44											1.08	0.965	0.909	0.941	0.99	1.04	1.11	0.968	1.1	0.668
EKVX	0.893	0.624	0.731	0.753	0.75	0.719	0.456	0.522	0.554	0.454	1.14	1.1	0.938	1.15	1.05	0.51	0.328		0.294	0.321
NCI-H1651	0.856	0.93	0.511	0.738	0.374	0.405	0.293	0.345	0.297	0.237	1.06	0.943	0.885	1.01	0.903	0.875	0.865	0.82	0.772	0.35
NCI-H1944	0.966	0.859	0.858	0.81	0.649	0.216	0.214	0.215	0.253	0.238						0.481	0.411	0.45	0.498	0.419
NCI-H1703	0.338	0.285		0.35	0.389						0.377	0.315	0.353	0.288	0.21					
Calu-6	0.959	0.84	0.702	0.798	0.275						0.972	0.914	1.05	0.845	0.361					
EBC-1	0.102	0.105	0.0888	0.0884	0.109						0.685	0.435	0.417	0.323	0.123					
SW 1573	0.871	0.767	0.802	0.999	0.885	0.625	0.456	0.594	0.472	0.213	1.08	0.907	0.883	0.986	0.577	0.577	0.645		0.545	0.61
A-427	1.22	0.965	0.579	0.468	0.232	0.775	0.593	0.706	0.756	0.793	1.08	1.01	0.936	1.08	0.968	0.763	0.746	0.698	0.448	0.267
NCI-H2347	1.02	0.856	0.881	0.614	0.813	0.345	0.319	0.332	0.306	0.297	1.04	0.856	1.14	1.24	0.915	0.294	0.299	0.237	0.312	0.235
NCI-H1355	1.02	0.907	0.631	0.47	0.325	0.886	0.726	0.767	0.838	0.674	1.24	1.22	1.21	1.28	1.02	0.449	0.45	0.468	0.383	0.335
NCI-H358	0.723	0.602	0.476	0.391	0.184	0.177	0.172	0.195	0.257	0.288						0.146	0.134	0.117	0.145	0.113
PC-3 [JPC-3]	1.09	1.07	0.67	0.829	0.444	1	0.892	1.01	1.12	0.947	0.74	0.859	0.825	0.889	0.829	0.779	0.696	0.622	0.71	0.539
NCI-H2228	0.902	0.898	0.507	0.914	0.281	0.543	0.403	0.553	0.544	0.337	1.36	0.999	1.37	1.05	0.401	0.612	0.251		0.417	0.252
HOP-62	1.28	1.15	0.335	0.252	0.186	0.707	0.675	0.603	0.66	0.524	0.74	0.812	0.809	0.803	0.456	0.456	0.435	0.282	0.244	0.191
HARA	0.979			0.912	0.584	0.195	0.195	0.233	0.282	0.302	1.03	1.03	1.22	1.18	0.943	1.03	0.458	0.48	0.688	0.651
